Literature values in US10702606B2, “Peptide composition” (MENICON CO., LTD., priority 2015, dated 2020).
Like-named read-outs stand apart in the source and are kept apart here.

Which results are given for `NCCN` [Ethylenediamine, ethylenediamine]?
pKa (25° C., only a pKa of 3.5 or more and less than 7.5 is described): 7.1; pKa (buffering agent, temperature not given): 7.1
